This is an account of results in patent US6410735B1, “1-(4-arylpiperazin-1-y1)-ω-[N-(α,ω-dicarboximido)]-alkanes useful as uro-selective α1-adrenoceptor blockers” (Ranbaxy Laboratories Limited, priority 1997, dated 2002).

T2 sequence (P31389 whole entry): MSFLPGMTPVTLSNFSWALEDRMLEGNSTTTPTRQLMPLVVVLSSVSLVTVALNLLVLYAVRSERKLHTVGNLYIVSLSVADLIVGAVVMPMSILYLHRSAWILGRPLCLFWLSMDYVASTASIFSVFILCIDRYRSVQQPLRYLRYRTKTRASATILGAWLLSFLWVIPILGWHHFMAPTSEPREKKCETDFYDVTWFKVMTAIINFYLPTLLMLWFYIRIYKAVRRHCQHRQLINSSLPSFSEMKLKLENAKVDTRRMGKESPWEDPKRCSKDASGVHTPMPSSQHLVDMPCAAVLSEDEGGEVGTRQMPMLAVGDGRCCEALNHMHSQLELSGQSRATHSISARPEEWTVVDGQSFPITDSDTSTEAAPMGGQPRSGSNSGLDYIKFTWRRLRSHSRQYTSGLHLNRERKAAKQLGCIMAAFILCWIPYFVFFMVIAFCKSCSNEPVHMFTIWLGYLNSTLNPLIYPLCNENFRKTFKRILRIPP

In one test the target is T1, α1B-adrenoceptor (Rattus norvegicus, UniProt P15823).
T1 construct: from tissue; host or cells: rat liver membranes
T1 sequence (P15823 1-515): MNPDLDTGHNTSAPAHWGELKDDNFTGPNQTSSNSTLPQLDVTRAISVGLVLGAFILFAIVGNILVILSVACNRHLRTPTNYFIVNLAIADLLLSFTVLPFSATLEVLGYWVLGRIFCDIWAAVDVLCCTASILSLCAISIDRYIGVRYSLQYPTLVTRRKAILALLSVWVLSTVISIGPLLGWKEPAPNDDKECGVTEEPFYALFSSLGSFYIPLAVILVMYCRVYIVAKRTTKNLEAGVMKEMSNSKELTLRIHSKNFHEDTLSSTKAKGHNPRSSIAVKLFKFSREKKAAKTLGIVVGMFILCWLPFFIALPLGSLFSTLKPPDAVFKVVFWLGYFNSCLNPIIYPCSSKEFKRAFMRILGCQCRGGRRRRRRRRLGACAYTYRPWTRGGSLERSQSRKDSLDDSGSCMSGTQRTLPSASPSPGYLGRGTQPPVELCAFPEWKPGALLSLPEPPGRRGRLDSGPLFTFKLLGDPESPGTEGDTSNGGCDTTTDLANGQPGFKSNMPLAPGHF
Description: Receptor binding assay, [3H]prazosin, rat liver membranes. The settings on record: rat liver membranes, 0.5 nM [3H]prazosin; read-out: RBA (Ki nM) α1B. As to the method: Receptor binding assays, (RBA's) were performed for native α1-adrenoceptors. Rat submaxillary and rat liver membrane preparations were used to assess the affinity for α1A and α1B subtypes, respectively. Aliquots of membrane protein ([…]) were incubated in a final volume of […] assay buffer (50 mM Tris, 0.5 mM EDTA at pH 7.4) with 0.5 nM [^3H] prazosin for 60 mins at 28 ° C. Reaction was stopped by rapid filtration on Millipore filters. Filters were dried and bound radioactivity counted. Non-specific binding was determined in the presence of 0.3 mM prazosin.
Usually Ki stands for the equilibrium dissociation constant of an inhibitor or competing ligand from its target. In the case of `COc1ccccc1N1CCN(CCCN2C(=O)CCC2=O)CC1` [Compound 2, 1-[4-(2-Methoxyphenyl)piperazin-1-yl]3-(2,5-dioxopyrrolidin-1-yl)propane], the Ki came to 244 nM.
`COc1ccccc1N1CCN(CCCCN2C(=O)CCC2=O)CC1` [Compound 9, 1-[4-(2-Methoxyphenyl)piperazin-1-yl]-4-(2,5-dioxopyrrolidin-1-yl)butane]: the inhibition constant Ki came out at 35 nM.
Same read-out and setting: the figure for `COc1ccccc1N1CCN(CCCN2C(=O)CCCC2=O)CC1` [Compound 13, 1-[4-(2-Methoxyphenyl)piperazin-1-yl]-3-(2,6-dioxopiperidin-1-yl)propane] is 168 nM.

The next test has as its target T2, H1 receptor (Cavia porcellus, UniProt P31389).
T2 construct: guinea pig trachea was used to study H1 receptor antagonistic activity; from tissue; host or cells: guinea pig trachea
Put plainly: Receptor selectivity, guinea pig trachea. It counts as cell-based. The note with it: read-out: pKB H1-Histaminergic (converted). How it is done:
Selectivity of action of the present compounds was tested against a range of different receptors, e.g., β1- and α2-adrenergic, muscarinic cholinergic, serotoninergic (5-HT2A), histaminergic (H1), angiotensin II, endothelin (ETA and B,), as well as calcium and potassium channels. Rat aorta was used to study the effect of the compounds on 5-HT2A, ETA, calcium and potassium channels. Angiotensin II receptor antagonistic activity was studied in rabbit aorta. Muscarinic cholinergic receptor and ETB receptor antagonistic activity was studied in rat trachea, while guinea pig trachea was used to study H1 receptor antagonistic activity. Electrically stimulated rat vas deferens was used to investigate the effect of α2-adrenoceptors, while β1-adrenoceptor antagonistic activity was studied using electrically stimulated rat ventricular strips. Results of this selectivity study is shown in (Table 2).
Take `COc1ccccc1N1CCN(CCCN2C(=O)CCC2=O)CC1` [Compound 2, 1-[4-(2-Methoxyphenyl)piperazin-1-yl]3-(2,5-dioxopyrrolidin-1-yl)propane]: the Kb was 5010 nM.
For the compound `COc1ccccc1N1CCN(CCCCN2C(=O)CCC2=O)CC1` [Compound 9, 1-[4-(2-Methoxyphenyl)piperazin-1-yl]-4-(2,5-dioxopyrrolidin-1-yl)butane], the Kb is 3980 nM.
Still for that read-out and setting: in the case of `COc1ccccc1N1CCN(CCCN2C(=O)CCCC2=O)CC1` [Compound 13, 1-[4-(2-Methoxyphenyl)piperazin-1-yl]-3-(2,6-dioxopiperidin-1-yl)propane] it was 2000 nM.

The next test has as its target T3, α1A-adrenoceptor (prostate) (Rattus norvegicus, UniProt P43140).
T3 construct: Aorta, prostate and spleen tissues were isolated from urethane anaesthetized (1.5 gm/kg) male wistar rats; from tissue; host or cells: isolated prostate of male Wistar rats
T3 sequence (P43140 1-466): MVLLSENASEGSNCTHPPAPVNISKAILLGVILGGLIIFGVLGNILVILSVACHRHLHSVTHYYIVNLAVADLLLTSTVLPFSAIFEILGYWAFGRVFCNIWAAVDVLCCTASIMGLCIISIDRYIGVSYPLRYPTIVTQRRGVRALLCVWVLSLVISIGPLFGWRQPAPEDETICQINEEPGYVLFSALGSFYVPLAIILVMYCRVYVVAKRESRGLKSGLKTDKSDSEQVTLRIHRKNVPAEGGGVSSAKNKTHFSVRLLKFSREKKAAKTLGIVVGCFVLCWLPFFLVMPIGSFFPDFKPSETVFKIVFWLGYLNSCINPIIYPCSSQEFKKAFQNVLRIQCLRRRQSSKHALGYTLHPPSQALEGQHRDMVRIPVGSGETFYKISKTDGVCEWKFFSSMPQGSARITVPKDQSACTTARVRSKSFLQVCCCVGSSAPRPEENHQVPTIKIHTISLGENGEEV
Description: In vitro functional assay, phenylephrine-induced contraction of isolated prostate. It is filed as cell-based. The note with it: rat prostate, phenylephrine; read-out: In Vitro Functional Assay (pKB) α1A (converted). From the text:
In order to study selectivity of action of the present compounds towards different α-adrenoceptor subtypes, the ability of these compounds to antagonize α1-adrenoceptor agonist induced contractile response of aorta (α1D), prostate (α1A) and spleen (α1B) was studied. Aorta, prostate and spleen tissues were isolated from urethane anaesthetized (1.5 gm/kg) male wistar rats. Isolated tissues were mounted in organ bath containing Krebs Henseleit buffer of the following composition (mM): NaCl 118; KCl 4.7; CaCl2 2.5; MgSO4·H2O 1.2; NaHCO3 25; KH2PO4 1.2; glucose 11.5. Buffer was maintained at 37° C. and aerated with a mixture of 95% O2 and 5% CO2. A resting tension of 2 g (aorta) or 1 g (spleen and prostate) was applied to tissues. Contractile response was monitored using a force displacement transducer and recorded on chart recorders. Tissues were allowed to equilibrate for 2 hours. At the end of equilibration period, concentration response curves to norepinephrine (aorta) and phenylephrine (spleen and prostate) were obtained in the absence and presence of the tested compound (at concentrations of 0.1, 1 and 10 μM). Antagonist affinity was calculated and expressed as PKB values in Table 1.
Turning to `COc1ccccc1N1CCN(CCCN2C(=O)CCC2=O)CC1` [Compound 2, 1-[4-(2-Methoxyphenyl)piperazin-1-yl]3-(2,5-dioxopyrrolidin-1-yl)propane], the Kb is 2 nM.
For the compound `COc1ccccc1N1CCN(CCCCN2C(=O)CCC2=O)CC1` [Compound 9, 1-[4-(2-Methoxyphenyl)piperazin-1-yl]-4-(2,5-dioxopyrrolidin-1-yl)butane], the Kb was 1 nM.
For the compound `COc1ccccc1N1CCN(CCCN2C(=O)CCCC2=O)CC1` [Compound 13, 1-[4-(2-Methoxyphenyl)piperazin-1-yl]-3-(2,6-dioxopiperidin-1-yl)propane], the Kb is 2.51 nM.

The test system of another test is anaesthetized dogs (blood pressure). Put plainly: In vivo selectivity study, phenylephrine response on blood pressure in anaesthetized dogs. More on the design: species or system dog. The settings on record: Canis lupus familiaris, iv 0.01-0.3 mg/kg, against phenylephrine, read-out: pseudo pKB Blood Pressure (converted). As to the method:
Male mongrel dogs (12-20 Kg) were anaesthetized with pentobarbitone sodium (35 mg/kg, iv). Trachea was intubated for artificial respiration. Femoral artery and femoral vein were cannulated for recording blood pressure and for administration of drug solutions, respectively. Blood pressure was recorded on a polygraph through a pressure transducer. A paramedian incision was made lateral to the penis and the bladder was exposed. Urine was drained through a cannula put directly into the bladder and it was guided into the urethra gently and was placed at the prostatic urethra. Balloon was inflated with 2 cc air and its placement was confirmed by digital pressure. Intraurethral pressure was recorded on the polygraph through a pressure transducer. Graded dose response relationship of phenylephrine (1-16 μg/kg, iv) was obtained on prostatic pressure and blood pressure, prior to administration of the compounds of the present invention. Compounds 2, 9, and 13 (at dosages of 0.01, 0.03, 0.1, and 0.3 mg/kg) were administered intravenously 10 min before obtaining phenylephrine dose response curves. Results were analyzed and pseudo PKB values were calculated as described in Kenny et al (1996).
`COc1ccccc1N1CCN(CCCN2C(=O)CCC2=O)CC1` [Compound 2, 1-[4-(2-Methoxyphenyl)piperazin-1-yl]3-(2,5-dioxopyrrolidin-1-yl)propane]: the Kb is 126 nM.
The same measure, in the same setting: the figure for `COc1ccccc1N1CCN(CCCCN2C(=O)CCC2=O)CC1` [Compound 9, 1-[4-(2-Methoxyphenyl)piperazin-1-yl]-4-(2,5-dioxopyrrolidin-1-yl)butane] is 39.8 nM; for `COc1ccccc1N1CCN(CCCN2C(=O)CCCC2=O)CC1` [Compound 13, 1-[4-(2-Methoxyphenyl)piperazin-1-yl]-3-(2,6-dioxopiperidin-1-yl)propane] it is 79.4 nM.
